Here are results for 52 compounds from PubChem BioAssay AID1996.

≈ marks a conversion by molar mass, not a printed value.

The term solubility (kinetic) denotes solubility judged after dilution from a stock solution rather than from solid.

For this series the following is noted: buffer; pH 7.4; 200.0 µM.
In turn, `COc1ccc(OC)c(/C=C/c2nc3ccccc3[nH]c2=O)c1` came in with a kinetic solubility of 3.1 µg/mL (≈ 10.1 µM).

`Cc1c(C(=O)NC2CCCCC2)oc2ccccc12`: the solubility (kinetic) was 5.3 µg/mL (≈ 20.6 µM).

`Cc1nc2ccc(C(=O)N3CCN(Cc4ccccc4)CC3)cc2[nH]1` registered a kinetic solubility of 49.7 µg/mL (≈ 149 µM).

The compound `CCC1CCC2(CC1)NC(=O)N(CC(=O)NCc1ccccc1Cl)C2=O` (configuration not stated) displayed a solubility (kinetic) of 19.9 µg/mL (≈ 52.7 µM).

As to `CCN1CCN(CC(=O)c2cc(Cl)ccc2Cl)CC1`, the solubility (kinetic) is above 45.2 µg/mL.

For the compound `COc1cc(C2NC(=O)NC(C)=C2C(C)=O)cc(OC)c1OC` (configuration not stated), the kinetic solubility was found to be 38.7 µg/mL (≈ 121 µM).

In the case of `COc1ccc(OC)c(NC(=O)CCN2CCN(C)CC2)c1.Cl`, the kinetic solubility came to 44.2 µg/mL.

`O=C(COC(=O)c1ccc2c(c1)OCO2)Nc1ccccc1OC(F)F`: the solubility (kinetic) is 3.7 µg/mL (≈ 10.1 µM).

Turning to `COc1ccccc1N1CC(C(=O)Nc2ccc(S(=O)(=O)N3CCCC3)cc2)CC1=O` (configuration not stated), the solubility (kinetic) is above 66.5 µg/mL.

As to `O=C1CC(Sc2cccs2)C(=O)N1c1ccccc1` (configuration not stated), the kinetic solubility came out at 41.7 µg/mL (≈ 144 µM).

In turn, `Cc1ccc(NC(=O)N2CCN(c3ncccc3C(F)(F)F)CC2)cc1` came in with a solubility (kinetic) of 1.5 µg/mL (≈ 4.12 µM).

On to `Cc1nn(-c2ccccc2)c2[nH]c(=O)cc(C(F)F)c12`, for which the kinetic solubility was above 41.3 µg/mL.

The compound `CCc1ccc(S(=O)(=O)Nc2ccccn2)cc1` showed a solubility (kinetic) above 39.3 µg/mL.

The compound `O=C(NC1CC2CCCC(C1)N2C(=O)Nc1ccccc1)c1ccccc1` (configuration not stated) registered a kinetic solubility of 4.6 µg/mL (≈ 12.7 µM).

On to `COc1ccc(N2CCN(c3nccs3)CC2)cc1`, for which the solubility (kinetic) was above 41.3 µg/mL.

`Cc1cc(C)cc(NC(=O)NCc2ccccn2)c1` had a kinetic solubility above 38.3 µg/mL.

Compound `C=CCSc1ncccc1C(=O)NCCc1ccc(Cl)cc1` had a kinetic solubility of 3.6 µg/mL (≈ 10.8 µM).

On to `COc1cccc(CN2CCN(c3ccc(F)cc3)C2=O)c1`, for which the solubility (kinetic) came to 29.9 µg/mL (≈ 99.6 µM).

`Cc1cn(CCOc2ccc(Cl)cc2)c(=O)[nH]c1=O` came in with a kinetic solubility of 36.8 µg/mL (≈ 131 µM).

For the compound `CC(=O)N1Cc2ccccc2CC1C(=O)N1CCN(c2ccccc2)CC1` (configuration not stated), the kinetic solubility is 43.5 µg/mL (≈ 120 µM).

`Nc1c(C(=O)CSc2ccccn2)c(=O)[nH]c(=O)n1C1CC1` showed a solubility (kinetic) of 24.6 µg/mL (≈ 77.3 µM).

For the compound `COc1ccccc1NC(=O)c1cc[n+]([O-])cc1`, the kinetic solubility was above 36.6 µg/mL.

For `CC(=O)NC(CC(=O)N(C)Cc1cccc(Cl)c1Cl)c1ccccc1` (configuration not stated), the solubility (kinetic) was above 56.9 µg/mL.

`Cc1cc(C)c2ccc(/C=N/O)nc2c1O` gave a solubility (kinetic) of 2.8 µg/mL (≈ 12.9 µM).

In the case of `CC(C)(C)OC(=O)N1CCC(C(=O)NCC2CCCO2)CC1` (configuration not stated), the solubility (kinetic) is above 46.9 µg/mL.

Regarding `O=C1CN(C(=O)COC(=O)CCC(=O)c2ccc(F)cc2)c2ccccc2N1`, the kinetic solubility came to 31.6 µg/mL (≈ 82.2 µM).

For the compound `CN(C)/C=C/C(=O)c1ccc(OCCN(C)c2ccccn2)cc1`, the solubility (kinetic) was above 48.8 µg/mL.

Consider `COc1ccc(N(C(C)C(=O)N2CCCC2)S(C)(=O)=O)cc1` (configuration not stated), for which the kinetic solubility is above 49 µg/mL.

`COc1ccc(OCCC(=O)OCC(=O)NCc2ccc(F)cc2)cc1` showed a solubility (kinetic) of 33.5 µg/mL (≈ 92.7 µM).

`CCc1ccccc1NC(=O)c1cnn(-c2ccccc2)c1C` displayed a kinetic solubility above 45.8 µg/mL.

For the compound `CN(Cc1ccccc1)C(=O)COC(=O)/C=C/c1ccc2c(c1)OCO2`, the solubility (kinetic) was determined as 22.3 µg/mL (≈ 63.1 µM).

On to `COc1cccc(N2CCN(C(=O)c3cc(C)oc3C)CC2)c1`, for which the kinetic solubility was above 47.2 µg/mL.

The compound `Cc1ccccc1CC(=O)Nc1cccnc1` registered a solubility (kinetic) above 33.9 µg/mL.

`O=c1[nH]c(-c2cccnc2)nc2sc(-c3ccccc3)cc12`: the solubility (kinetic) came out at 0.2 µg/mL (≈ 0.655 µM).

Compound `CC(=NCCc1ccccc1)C1=C(O)C(c2ccccc2)OC1=O` (configuration not stated) displayed a solubility (kinetic) of 31.7 µg/mL (≈ 98.6 µM).

For `O=C(Nc1ccccc1)OCCOc1ccccc1Br`, the kinetic solubility was below 0.7 µg/mL.

Compound `Cc1cccc(N2C(=O)CN(Cc3ccccc3)C2=S)c1` returned a kinetic solubility of 10 µg/mL (≈ 33.7 µM).

In the case of `COC(=O)CC1C(=O)NCCN1C(=O)c1cc([N+](=O)[O-])ccc1Cl` (configuration not stated), the solubility (kinetic) stood at 52.9 µg/mL (≈ 149 µM).

Take `CCCN1C(=O)C2(OCCO2)c2cc(Cl)ccc21`: the kinetic solubility is above 40.2 µg/mL.

For `O=C(CCN1C(=O)c2ccccc2C1=O)NCCCn1ccnc1`, the solubility (kinetic) is above 49 µg/mL.

`Cc1nccc(-c2sc(-c3cccs3)nc2C)n1`: the solubility (kinetic) turned out to be 2.6 µg/mL (≈ 9.51 µM).

Compound `CCOC(=O)C1CCCN(C(=O)c2cc3ccc(OC)cc3[nH]2)C1` (configuration not stated) came in with a solubility (kinetic) above 49.6 µg/mL.

Consider `NC(=O)C1CCCN1` (configuration not stated), for which the kinetic solubility is above 17.1 µg/mL.

`O=C(O)c1ccc(NCc2cccnc2)c([N+](=O)[O-])c1` returned a solubility (kinetic) above 41 µg/mL.

Regarding `Cl.N=c1n(CCO)c2ccccc2n1CCN1CCCCC1`, the kinetic solubility was above 48.7 µg/mL.

For the compound `O=C1CCCC2=C1C(c1ccccc1)CC(=O)N2c1ccc(F)cc1F` (configuration not stated), the kinetic solubility is 45.8 µg/mL (≈ 130 µM).

On to `CC(C)(C)n1cnnc1Sc1ccc([N+](=O)[O-])cn1`, for which the kinetic solubility was above 41.9 µg/mL.

`CC(NC(=O)COc1cccnc1[N+](=O)[O-])c1ccc(F)cc1` (configuration not stated) had a solubility (kinetic) above 47.9 µg/mL.

Take `C/C(=C\C(=O)c1ccc(Cl)cc1Cl)N(C)C`: the solubility (kinetic) came out at 3.8 µg/mL (≈ 14.7 µM).

The compound `CC(C)(C)C(=O)Nc1ccc(C(=O)COC(=O)c2ccccn2)cc1` came in with a solubility (kinetic) of 50.2 µg/mL (≈ 147 µM).

Compound `CC(=O)c1sc(NC(=O)c2ccc3c(c2)OCO3)nc1C` came in with a solubility (kinetic) of 0.9 µg/mL (≈ 2.96 µM).

In the case of `COc1ccc(/C=C(\C#N)C(=O)Nc2ccccn2)cc1`, the kinetic solubility was 3.5 µg/mL (≈ 12.5 µM).
